Test results taken from PubChem BioAssay (NCI).
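Each compound was tested at five concentrations against cells in 96-well plates for 48 hours. Here, GI50 denotes the concentration required for 50% inhibition of growth. The concentration for full growth arrest is given as TGI.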

Key:
Assay in all cases: inhibition of tumour cell growth, NCI panel, 48 h
[1] = system: NCI-H460 lung
[2] = system: MALME-3M melanoma
[3] = system: SK-MEL-28 melanoma
[4] = system: UACC-62 melanoma
[5] = system: SNB-75 CNS
[6] = system: M14 melanoma
[7] = system: HL-60(TB) leukemia
[8] = system: NCI-H522 lung
[9] = system: KM12 colon
[10] = system: OVCAR-4 ovarian

SMILES | GI50 [1] [µM] | TGI [1] [µM] | GI50 [2] [µM] | TGI [2] [µM] | GI50 [3] [µM] | TGI [3] [µM] | GI50 [4] [µM] | TGI [4] [µM] | GI50 [5] [µM] | TGI [5] [µM] | GI50 [6] [µM] | TGI [6] [µM] | GI50 [7] [µM] | TGI [7] [µM] | GI50 [8] [µM] | TGI [8] [µM] | GI50 [9] [µM] | TGI [9] [µM] | GI50 [10] [µM] | TGI [10] [µM]
COc1cccc(-n2ncc3c(N/N=C/c4ccc(C(=O)NCCN(C)C)cc4)ncnc32)c1 | 3.23 | 7.24 | 3.43 | 7.81 | 3.5 | 7.28 | 3.72 | 7.39 | 1.05 | 5.13 | 1.8 | 5.55 | 5.58 | 10.5 | 2.04 | 5.96 | 1.36 | 4.67 | 3.16 | 7.56
COC(=O)[C@H](C[C@H](Cc1ccccc1)NC(=O)c1csc([C@@H](C[C@H](C(C)C)N(C)C(=O)[C@@H](NC(=O)[C@H]2CCCCN2C)C(C)C)OC(C)=O)n1)NC(=O)OCc1ccccc1 | < 0.0009 | > 9 | < 0.0009 | 2.67 | 0.0025 | 2.5 | < 0.0009 | > 9 | < 0.0009 | > 9 | < 0.0009 | 0.365 | < 0.0009 | 0.00178 | < 0.0009 | 0.0525 | < 0.0009 | > 9 | 0.0124 | > 9
C1C[OH+]CC[OH+]CCNCC[OH+]CC[OH+]CCN1.N.[Cl-].[Pt+4] | 1.81 | 63.9 | 3.14 | 18.3 | 11.1 | 35.7 | 3.39 | 14.9 | 3.59 | 20.2 | 5.31 | 23.6 | 1.61 | > 100 | 12.9 | 48.1 | 19 | 48.7 | 2.84 | 11.6
CC[C@@H](C(=O)O)C1CC[C@H](C)C([C@@H](C)[C@H](O)[C@H](C)C(=O)[C@H](CC)C2O[C@]3(C=C[C@@H](O)[C@]4(CC[C@@](C)(C5CC[C@](O)(CC)[C@H](C)O5)O4)O3)[C@H](C)C[C@@H]2C)O1 (some centres undefined) | 0.383 | 10.5 | 0.226 | 1.37 | 0.549 | 1.93 | 0.767 | 2.15 | 0.774 | 4.18 | 1.29 | 2.82 | 0.0406 | 0.347 | 0.0785 | 1.78 | 0.893 | 11.9 | 0.657 | 33.7
OC(c1cc(-c2ccccc2)nc2ccc(Cl)cc12)C1CCCCN1 (centres undefined) | 1.89 | 3.61 | 1.99 | 3.88 | 1.77 | 3.36 | 1.88 | 3.68 | 1.83 | 5.74 | 1.87 | 3.54 | 2.26 | 4.82 | 2.11 | 4.53 | 1.94 | 3.74 | 3.24 | 8.96
COc1cc(C2CC(c3ccc4c(c3)OCO4)=NN2C=O)cc(OC)c1OC (centres undefined) | 1.37 | > 100 | 1.93 | > 100 | 6.36 | > 100 | 2.21 | > 100 | 1.13 | 5.43 | 1.3 | > 100 | 0.935 | – | 1.22 | > 27.6 | 1.17 | > 100 | 6.86 | > 100
CC#C[C@]1(O)CC[C@H]2[C@@H]3CCC4=CC(=O)CCC4=C3[C@@H](c3ccc4c(c3)OCO4)C[C@@]21C | 108 | 305 | 173 | 556 | 85.8 | 276 | 50 | 204 | 42.8 | 521 | 31 | 154 | 47.5 | 399 | 110 | 460 | 112 | 299 | 61.1 | 989
CCN(CC)c1ccc(C(=O)c2ccccc2C(=O)O)c(O)c1 | – | > 100 | – | > 100 | – | > 100 | – | > 100 | – | > 100 | – | > 100 | – | > 100 | – | > 100 | – | > 100 | – | > 100
COc1ccc(C2=Nc3ccccc3NC(=O)C2)cc1 | – | > 100 | – | > 100 | – | > 100 | – | > 100 | – | 57.3 | – | > 100 | – | 42.1 | – | > 100 | – | > 100 | – | > 100
COc1ccc(/C=C(/C#N)C(N)=O)cc1OC | – | > 100 | – | > 100 | – | > 100 | – | > 100 | – | > 100 | – | > 100 | – | > 100 | – | > 100 | – | > 100 | – | > 100
COc1ccc(/C(C#N)=C/c2ccccc2OC)cc1 | 5.89 | > 100 | 17.1 | > 100 | 17.5 | > 100 | 7.36 | > 100 | 4.07 | 32.8 | 4.8 | 60.9 | 5.25 | > 100 | 4.85 | 32.3 | 5.04 | > 100 | 32.5 | > 100
